Experimental findings from patent publication US20230391748A1, “BICYCLIC INHIBITORS OF IRAK” (priority 2022, published 2023) are described below.

The test system of assay [1] is TNF-α in Human Primary Monocyte-Derived Dendritic Cells. Description: Gardiquimod-Induced TNF-α in Human Primary Monocyte-Derived Dendritic Cells. It is filed as cell-based. The following applies: Dendritic cell, IFNγ-primed monocyte-derived dendritic cells, 4 μg/ml Gardiquimod, 6 hours, TNF-α ELISA, read-out: TNFα (DC, GARD) (IC50). The procedure: Gardiquimod-Induced TNF-α in Human Primary Monocyte-Derived Dendritic Cells
After 2 hours, the media including floating cells was carefully removed and 12 ml of fresh RPMI media (10% FBS) containing GM-CSF (100 ng/ml) and IL-4 (20 ng/ml) were added to the adherent monocytes. The monocytes were allowed to differentiate for 7 days at 37° C., 5% CO2 for 7 days, supplementing with fresh GM-CSF and IL-4 after 3 days. The differentiated dendritic cells (DC) were harvested by centrifugation (1200 rpm/5 min). The DCs were primed at 37° C., 5% CO2 for 24 hours with 50 ng/ml IFN-γ (1000 U/ml) at 50K/well in 100 μl/well of fresh RPMI media (10% FBS) in a white clear bottom 96 well plate.
The primed DCs were pre-incubated with test compound for 1 hour at 37° C., 5% CO2 by adding 100 μl of RPMI media containing 2× concentrated test compound per well (0.5% final DMSO concentration).
DCs were stimulated with Gardiquimod (10 μl per well of 20× concentrated Gardiquimod solution in RPMI media to give a final concentration of 4 μg/ml) at 37° C., 5% CO2 for an additional 6 hours. The supernatant (100 μl/well) was harvested to measure TNF-α by ELISA. […] The chemiluminescence values were entered into Athena (Rigel) for curve fitting, EC50 calculation, and database storage.
(§1) TNF-α ELISA was performed according to the vendor protocol, using 96 Well Flat-Bottom, MaxiSorp Black Immuno plates and 100 μL/well of supernatant. The plates were developed using 100 μL/well of Super Signal ELISA Pico Chemiluminescent Substrate. The plates were read with a luminometer, and the chemiluminescence values were entered into Athena (Rigel) for curve fitting, EC50 calculation, and database storage.
On the technique in general: In an ELISA, binding on a coated surface is turned into a signal by an enzyme label.

For a further assay, the system named is TNF-α in human PBMCs. Briefly: R848-induced TNF-α in human PBMCs Assay. It is filed as cell-based. The following applies: PBMC; for IC50: Homo sapiens, 4 h, read-out: TNFα (PBMC, R848) (IC50, μM). The procedure:
R848-induced TNF-α in human PBMCs Assay
100 μL/well PBMCs (200K/well) were seeded in 96-well flat-bottom tissue culture plates. […] 100 μL/well 2× compound was added to the PBMC in the tissue culture plates. […] The cells were stimulated with R848 for an additional 4 hours at 37° C., 5% CO2. The supernatant (100 μl/well) was harvested to measure TNF-α by ELISA. […] The chemiluminescence values were entered into Athena (Rigel) for curve fitting, EC50 calculation, and database storage.
as §1

A further assay concerns the target IRAK4 (Homo sapiens (Human), UniProt Q9NWZ3). Briefly: IRAK4 ADP-Glo Assay. It is filed as biochemical. The following applies: MBP substrate. Here is the method: The ADP-Glo™ reagents were thawed at ambient temperature. The Kinase Detection Reagent was prepared by mixing kinase detection buffer with the lyophilized kinase detection substrate, and set aside.
A stock volume of 5× Reaction Kinase Buffer was made with a final concentration of 100 mM MgCl2, 200 mM Tris-HCl, and 0.5 mg/ml of BSA, in distilled H2O with a final pH7.4. A 2× working stock volume of Reaction Kinase Buffer was made containing a final concentration of 100 μM DTT.
The components of IRAK4 Enzyme were thawed on ice. Diluted IRAK4 in 1× Kinase Reaction Buffer (diluted from 2× buffer) was prepared at 5.0 ng/μl.
Then diluted 1:5 in 2× Reaction Buffer in a 96 well plate. 1.0 μl was transferred to a 384 well plate in duplicate. […] 1 μl of 1 mg/ml stock solution of MBP substrate was added NOTE: MBP can be combined with ATP mix with equal volume and then added at 2 μl/well. Final reaction volume was 5 μl.
The plate was centrifuged and the reaction mixture was incubated at room temperature for 60 minutes or at 30° C. for 30 minutes.
The reaction was terminated and the remaining ATP was depleted by adding 5 μl of ADP-Glo™ Reagent. The 384-well plate was centrifuged and then the reaction mixture was incubated for another 40 minutes at ambient temperature.
10 μl of the Kinase Detection Reagent was added. The plate was centrifuged and then the reaction mixture was incubated for another 30 minutes at ambient temperature.
The 384-well reaction plate was read using the WALLAC plate reader (Luminescence 0.1s).
Background: In ADP-Glo the light output rises with the ADP produced.

The subject of the next assay is IL23p19 in THP-1 Cells. Description: LPS Induced IL23p19 in THP-1 Cells (with IFNγ Primed) Assay. It is filed as cell-based. The note with it: Homo sapiens; for IC50: THP-1, 18 h, read-out: IL23 (THP, LPS) (IC50, μM). The procedure: LPS Induced IL23p19 in THP-1 Cells (with IFNγ Primed) Assay
On day 1, 50K/well THP-1 cells were seeded and primed with IFNγ (50 ng/mL) in 384-well plates for about 18 hours in RPMI media with 10% FBS. […] 50 μL/well 2× compound was added to 50 μL/well THP-1 cells (with IFNγ primed) in duplicate in 384 well tissue culture plates. […] Day 3, after stimulation for 18 hours at 37° C., 5% CO2, the assay plate was centrifuged and 70 μL/well supernatant was harvested. IL-23p19 protein in 70 µL/well of supernatant was measured by sandwich ELISA, and 25 μl/well Cell Titer Glo reagent was added to the remaining cells to measure compound toxicity.
Maxisorp immuno ELISA plates were pre-coated with 25 μL/well of anti-IL-23p19 capture antibody (2.5 ug/mL) in PBS overnight at room temperature. […] 25 μL/well of biotin labeled anti-IL-12(p40/p70) detection antibody (100 ng/mL) in PBS with 1% BSA was added and the plates were incubated at room temperature for 2 hours with shaking. […] The plates were read with a luminometer, and the chemiluminescence values were entered into Athena (Rigel) for curve fitting, EC50 calculation, and database storage.

pIC50: −log10 of the molar value. Like-named read-outs stand apart in the source and are kept apart here.

Chain of IRAK4 (Q9NWZ3 whole entry): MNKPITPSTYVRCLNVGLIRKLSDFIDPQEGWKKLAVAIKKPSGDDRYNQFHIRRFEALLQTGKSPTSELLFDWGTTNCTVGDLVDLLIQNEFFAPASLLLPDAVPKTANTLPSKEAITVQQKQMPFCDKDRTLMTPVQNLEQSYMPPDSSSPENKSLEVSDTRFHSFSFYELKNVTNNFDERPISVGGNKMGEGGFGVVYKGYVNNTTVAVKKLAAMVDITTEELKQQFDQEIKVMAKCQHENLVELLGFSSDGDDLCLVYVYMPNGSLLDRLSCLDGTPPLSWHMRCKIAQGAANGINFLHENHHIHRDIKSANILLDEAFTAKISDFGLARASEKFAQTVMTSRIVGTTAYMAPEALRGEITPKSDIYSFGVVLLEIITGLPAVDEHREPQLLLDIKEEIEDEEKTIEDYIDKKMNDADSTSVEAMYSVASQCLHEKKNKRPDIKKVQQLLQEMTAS

Usually pIC50 stands for the negative decadic logarithm of the IC50, by convention in mol/L. Usually IC50 stands for the concentration needed to halve the response being measured. Consider `CC(C)Oc1cc2c(OC[C@@H]3CCC(=O)N3)ncc(C#CC3(O)CCN(C)CC3)c2cc1C(N)=O` [Compound I-14, (S)-4-((4-hydroxy-1-methylpiperidin-4-yl)ethynyl)-7-isopropoxy-1-((5-oxopyrrolidin-2-yl)methoxy)isoquinoline-6-carboxamide], for which the negative logarithm of the IC50 (pIC50) in assay [1] is 5.10; on IRAK4 it was 8.27. In addition, in the assay on TNF-α in human PBMCs, the IC50 was determined as 3.93 µM.

Turning to `CC(C)Oc1cc2c(OC[C@@H]3CCC(=O)N3)ncc(C#CC3CCN(C(C)C)CC3)c2cc1C(N)=O` [Compound I-19, (S)-7-isopropoxy-4-((1-isopropylpiperidin-4-yl)ethynyl)-1-((5-oxopyrrolidin-2-yl)methoxy)isoquinoline-6-carboxamide], the pIC50 in assay [1] was 6.21; on IRAK4, 8.17. Moreover, the IC50 in the assay with IL23p19 in THP-1 Cells came to 0.124 µM.

In the case of `CC(C)Oc1cc2c(OC[C@@H]3CC(F)(F)C(=O)N3)ncc(C#CC3CN(C)C3)c2cc1C(N)=O` [Compound I-64, (S)-1-((4,4-difluoro-5-oxopyrrolidin-2-yl)methoxy)-7-isopropoxy-4-((1-methylazetidin-3-yl)ethynyl)isoquinoline-6-carboxamide], the negative logarithm of the IC50 (pIC50) was 7.54 in assay [1] and 8.44 against IRAK4. Further, the IC50 in the assay on TNF-α in human PBMCs amounted to 0.0215 µM.

As for `CC[C@@H]1[C@H](F)C(=O)N[C@@H]1COc1ncc(C#CC2CCOCC2)c2cc(C(N)=O)c(OC(C)C)cc12` [Compound I-79, 1-(((2S,3S,4S)-3-ethyl-4-fluoro-5-oxopyrrolidin-2-yl)methoxy)-7-isopropoxy-4-((tetrahydro-2H-pyran-4-yl)ethynyl)isoquinoline-6-carboxamide], in the assay on IL23p19 in THP-1 Cells, the half-maximal inhibitory concentration (IC50) came out at 0.0072 µM. Besides, on IRAK4, the pIC50 is 7.74.

On to `CCO[C@H]1CC[C@H](C#Cc2cnc(OC[C@H]3NC(=O)[C@@H](F)[C@H]3CC)c3cc(OC(C)C)c(C(N)=O)cc23)CC1` [Compound I-80, 4-(((1r,4S)-4-ethoxycyclohexyl)ethynyl)-1-(((2S,3S,4S)-3-ethyl-4-fluoro-5-oxopyrrolidin-2-yl)methoxy)-7-isopropoxyisoquinoline-6-carboxamide], for which the 50% inhibitory concentration (IC50) with IL23p19 in THP-1 Cells came out at 0.0105 µM. This compound showed a pIC50 against IRAK4 of 6.41.

In the case of `CCO[C@H]1CC[C@@H](C#Cc2cnc(OC[C@H]3NC(=O)[C@@H](F)[C@H]3CC)c3cc(OC(C)C)c(C(N)=O)cc23)CC1` [Compound I-81, 4-(((1s,4R)-4-ethoxycyclohexyl)ethynyl)-1-(((2S,3S,4S)-3-ethyl-4-fluoro-5-oxopyrrolidin-2-yl)methoxy)-7-isopropoxyisoquinoline-6-carboxamide], in the assay with IL23p19 in THP-1 Cells, the 50% inhibitory concentration (IC50) is 0.0163 µM. At IRAK4, this compound showed a negative-log IC50 (pIC50) of 6.33.

`CC(C)Oc1cc2c(O[C@@H]3CCCN(C(=O)CC#N)C3)ncc(C#CC3(O)CCNCC3)c2cc1C(N)=O` [Compound I-93, (R)-1-((1-(2-cyanoacetyl)piperidin-3-yl)oxy)-4-((4-hydroxypiperidin-4-yl)ethynyl)-7-isopropoxyisoquinoline-6-carboxamide]: the negative logarithm of the IC50 (pIC50) at IRAK4 was 7.64.

In the case of `CC(C)Oc1cc2c(O[C@@H]3CCCN(C(=O)CC#N)C3)ncc(C#CC3(O)CCN(C)CC3)c2cc1C(N)=O` [Compound I-94, (R)-1-((1-(2-cyanoacetyl)piperidin-3-yl)oxy)-4-((4-hydroxy-1-methylpiperidin-4-yl)ethynyl)-7-isopropoxyisoquinoline-6-carboxamide], the values for the IC50 in the assay on IL23p19 in THP-1 Cells and in the assay with TNF-α in human PBMCs were 18.8 µM and 8.08 µM, respectively. For the same compound, the pIC50 against IRAK4 was 7.25.

Consider `CC(C)Oc1cc2c(O[C@@H]3CCCN(C(=O)OC(C)(C)C)C3)ncc(-c3cnn(C4CC4)c3)c2cc1C(N)=O` [Compound I-107, tert-butyl (R)-3-((6-carbamoyl-4-(1-cyclopropyl-1H-pyrazol-4-yl)-7-isopropoxyisoquinolin-1-yl)oxy)piperidine-1-carboxylate], for which the pIC50 in the assay on IL23p19 in THP-1 Cells (IFNγ-primed THP-1 cells, 1 μg/mL LPS, 18 hours, IL-23p19 ELISA, read-out: IL23 (THP, LPS) (IC50)) is 3.99; with TNF-α in human PBMCs (human PBMCs, 65 ng/mL R848, 4 hours, TNF-α ELISA, read-out: TNFα (PBMC, R848) (IC50)) it was 4.42.
